Read-outs that look alike come from different tables or passages of the source.
Assays:
[1] = test system: dLight1.3b-expressing HEK293T sniffer cells on primary DArgic neurons; assay: DA release imaging from cultured DArgic neurons with dLight1.3b sniffer cells; format: cell-based, mouse; conditions: DETQ 200 nM added to 4-AP perfusion
Experimental: Primary DA (DA) neurons were grown on a layer of cortical astrocytes. The astrocytes were first prepared from P0-P2 C57BL6 mice, grown in T75 flask and then seeded on collagen/poly-L-lysine coated 15 mm glass coverslips at a concentration of 100,000 cells/ml. The cells were allowed to grow until close to confluence before the seeding of neurons. Primary DArgic neurons were prepared and cultured from P0-P2 mouse pups using a previously described protocol. Briefly, the ventral midbrain of P0-P2 pups was dissected from DAT^IREScre x Ai9 mice in which DA neurons expressed the red fluorescent protein tdTomato. These were produced by crossing DAT^IREScre mice (catalog #006660, Jackson Labs[31]) to Ai9/tdTomato mice (catalog #007905, Jackson Labs[32]). Both of these lines were on a C57BL/6 J background. Midbrain cells were seeded at a concentration of 240,000 cells/ml on top of the astrocyte monolayer and allowed to grow for 10 days (10 DIV). Two days before imaging, expression of dLight1.3b was induced in stable HEK cells with doxycycline. One day prior to imaging, HEK cells were lifted using trypsin, and 150,000 HEK cells were seeded on top of 10 DIV-cultured neurons in doxycycline-supplemented neuronal medium. Imaging was performed on a confocal microscope (Nikon A1 HD25) using a 40X dry objective and a 488 nm laser to excite dLight1.3b and a 546 nm laser to activate tdTomato and identify DA neurons. On the day of imaging, physiological saline containing drugs at the specified concentration ([…], Sigma; SCH23390, Sigma; DETQ, Enamine) were applied on the culture using a computer-controlled perfusion system (Automate system). A field containing one or more DA neurons was selected based on the tdTomato signal. […]
Event detection was performed using a thresholding algorithm adapted from[80]. In brief, the recorded field of view was divided into square ROIs of 55 um x 55 um size. […] A rolling standard deviation was calculated with the same window size. Events were defined as timepoints at which the fluorescence intensity reading exceeds the averaged intensity by 5 standard deviations.

DRD1-MSNs = assay: Whole-cell electrophysiology of DRD1-MSNs in dorsal striatum brain slices; format: cell-based, mouse
Experimental: For experiments involving SKF38393 application, to identify DRD1 receptor (DRD1)-positive neurons in the dorsal striatum, DRD1:cre mice injected with AAV5-hSyn-dlox-ChrimsonR-tdTomato were used. 3–4 weeks after viral injection, mice were anesthetized with 5% isoflurane and euthanized by decapitation. […] Slices were kept at 34 °C for 10–20 minutes and then at room temperature until recordings. In the recording chamber, slices were superfused with ACSF at 30–32 °C. Patch pipettes (3–7 MΩ) were pulled from borosilicate glass pipettes (GC150T-10, Harvard Apparatus). The internal solution contained (in mM): potassium gluconate 130, MgCl2 4, MgATP 3.4, Na3GTP 0.1, creatine phosphate 10, HEPES 5, and EGTA 1.1. The membrane potential was measured using EPC 10 USB Patch Clamp Amplifiers (HEKA). The access resistance was monitored by a hyperpolarizing step of −10 mV. The identification of DRD1-positive neurons was performed by the presence of red fluorescence protein and photo-evoked current or potential (@2 Hz, 10 ms duration, 2 pulses or 500 ms continuous pulse. light source: Colibri 7, Zeiss; 630 nm wavelength, 1 mW). To assess the excitability of neurons, positive currents were injected (0–500 pA) and the number of action potentials was counted at each current step. To measure input resistance, negative currents were injected (−200 to 0 pA, every 50 pA, 500 ms), as previously described. The resting membrane potential was measured at 0 pA current input.
Action potentials were evoked by current injection (50–500 pA, 500 ms) in current-clamped neurons. Neurons were recorded from in the presence of picrotoxin (100 µM), CGP55485 (0.3 µM), DNQX (10 µM), and MK801 (10 µM) to block GABAA, GABAB, AMPA and NMDA receptors, respectively. DA (10 µM) was applied to brain slices in the presence of cocaine (5 µM) to prevent reuptake.

dLight1.3b = assay: NAc dLight1.3b photometry with food restriction; format: in vivo, mouse; conditions: DETQ 10 mg/kg
Experimental: To determine how metabolic state modulates tonic DA levels, DAT^IREScre mice expressing dLight1.3b in the NAc core were tested in either the fed state (ad libitum), the food-restricted state (mice food restricted to 90% of baseline body weight for 5–7 days), or after 4 weeks recovery from food-restriction (ad libitum). Daily food intake was measured per cage (2–3 mice per cage). […] Mice were injected i.p. with vehicle at 0 min and DETQ (10 mg/kg) 10–15 min later, then recording lasted 50 min.
For long-term recordings during optogenetic stimulation or chemogenetic inhibition linear fit was calculated across the entire recording or across the vehicle epoch; for event-related experiments fit was performed on fluorescent data obtained in the −60 to +60 s around opto events or −5 to −1 s around behavioral events. […] DA event-related responses were quantified by computing the value at the transient’s peak value and the AUC in the 0 to 10 s or 0 to 60 s period post-event onset. […] The maximal peak value of Veh-normalized ΔF/F0 after opto-onset was plotted over time and the plateau of maximal response was determined by averaging peak opto responses 5, 10, 15 and 20 min post-DETQ. […] AUC of the baseline was calculated within the +5 to +40 minutes time window post ip injection. […]

[2] = 10 and 30 mg/kg per os, ref Svensson et al 2017, cited from earlier work

C[C@H]1c2cccc(C(C)(C)O)c2C[C@H](CO)N1C(=O)Cc1c(Cl)cccc1Cl [DETQ, 2-(2,6-dichlorophenyl)-1-((1S,3R)-3-(hydroxymethyl)-5-(2-hydroxypropan-2-yl)-1-methyl-3,4-dihydroisoquinolin-2(1H)-yl)ethan-1-one]
number of detected phasic DA release events [1]: increased | sensor baseline signal (tonic DA) [1]: long-lasting increase | number of action potentials: DA with versus without DETQ (DRD1-MSNs; DA 10 µM, DETQ 200 nM): no significant difference | resting membrane potential or excitability of DRD1-MSNs (DRD1-MSNs; DETQ 200 nM superfusion): No noticeable changes | step-like increase in baseline fluorescence, food-restriction versus ad libitum state (dLight1.3b): significantly higher | behavioral activity ([2]; hD1 mice): pronounced behavioral activation | behavioral activity ([2]; wild type mice): no behavioral activity

From publication PMC11219860, “A chemogenetic approach for dopamine imaging with tunable sensitivity” (Nature Communications, 2024)
